Usually EC50 stands for the concentration giving half of the maximal effect.

The first assay relates to TNFα production in LPS-stimulated human monocytes. Put plainly: Cot Monocyte TNFα Cell Based Assay. Conditions: Homo sapiens, Monocyte, LPS-stimulated human monocytes, TNFα TR-FRET; read-out: EC50 TNF. The procedure:
Example 60: Cot Monocyte TNFα Cell Based Assay
The cell suspension was then plated at a density of 5,000 cells/well onto black 384 well Greiner clear bottom plates. Plates were pre-spotted with test compounds and serially diluted in DMSO where 200 nL/well were delivered using the Echo 550 acoustic liquid dispenser (Labcyte®) for a final DMSO concentration of 0.5%. Plated cells were treated with compound for 1 hour at 37° C. Cells were then stimulated with 50 pg/ml of LPS (Sigma) excluding outside columns of plate used for unstimulated cell control wells. Cells were incubated for an additional 4 hours at 37° C. Cells were then spun out of the media and 5 ul of sample were taken and analyzed for total TNFα content using the TR-FRET Human TNFα detection system (CisBio). This system utilizes two labeled antibodies (cryptate and XL665) that bind to two different epitopes of the TNFα molecule and produce FRET signal proportional to the concentration of TNFα in the sample. Detection antibodies are mixed 50:50 and 5 μL were dispensed into each well. Plates were covered with clear seals and incubated at room temp overnight. […] Percent of control was calculated as follows: % Control=100×(RatioSample−Ratio0% stimulation)/(Ratio100% Stimulation−Ratio0% Stimulation) where unstimulated cells (0% stimulation) were the negative control and stimulated cells (100% stimulation) were used as the positive control.
In general terms: TR-FRET usually uses a lanthanide donor and a delayed reading to cut background.
Consider `[2H][C@](Nc1cc(Cl)c2ncc(C#N)c(N[C@H](CCS(C)(=O)=O)c3ccccc3)c2c1)(c1ccc(F)cc1)c1cn(C2CC2)nn1` [Example 932, 8-chloro-6-(((1-cyclopropyl-1H-1,2,3-triazol-4-yl)(4-fluorophenyl)methyl-d)amino)-4-(((R)-3-(methylsulfonyl)-1-phenylpropyl)amino)quinoline-3-carbonitrile], for which the concentration giving a half-maximal response (EC50) is 505 nM.

The assay is the same for the next values; noted with them: Homo sapiens, Monocyte, TNFα in LPS-stimulated human monocytes; read-out: EC50 TNF.
Turning to `CC(C)(C)N1CCC(n2cc([C@@H](Nc3cc(Cl)c4ncc(C#N)c(Nc5ccc(F)c(Cl)c5Cl)c4c3)c3ccc(Cl)cc3)nn2)CC1` [Example 665, (S)-6-(((1-(1-(tert-butyl)piperidin-4-yl)-1H-1,2,3-triazol-4-yl)(4-chlorophenyl)methyl)amino)-8-chloro-4-((2,3-dichloro-4-fluorophenyl)amino)quinoline-3-carbonitrile], the EC50 worked out at 1970 nM.
For `Cc1ccccc1[C@H](Nc1cc(Cl)c2ncc(C#N)c(Nc3cnc(F)c(F)c3)c2c1)c1c[nH]nn1` [Example 396, (S)-8-chloro-4-((5,6-difluoropyridin-3-yl)amino)-6-((o-tolyl(1H-1,2,3-triazol-4-yl)methyl)amino)quinoline-3-carbonitrile], the EC50 is 1230 nM.
Turning to `[2H][C@](Nc1cc(Cl)c2ncc(C#N)c(NCC3(C)CCOCC3)c2c1)(c1ccc(F)cc1)c1cn(-c2cccnc2)nn1` [Example 332, (S)-8-chloro-6-(((4-fluorophenyl)(1-(pyridin-3-yl)-1H-1,2,3-triazol-4-yl)methyl-d)amino)-4-(((4-methyltetrahydro-2H-pyran-4-yl)methyl)amino)quinoline-3-carbonitrile], the EC50 is 426 nM.
For the compound `CC(C)n1cc([C@@H](Nc2cc(Cl)c3ncc(C#N)c(Nc4ccc(F)c(Cl)c4)c3c2)c2cccc(COCCN(C)C)c2)nn1` [Compound 40], the EC50 came to 1260 nM.
The same measure, in the same setting: with `CC(C)(C)N1CCC(n2cc([C@@H](Nc3cc(Cl)c4ncc(C#N)c(Nc5csc(Cl)c5)c4c3)c3ccccc3)nn2)CC1` [Example 641, (S)-6-(((1-(1-(tert-butyl)piperidin-4-yl)-1H-1,2,3-triazol-4-yl)(phenyl)methyl)amino)-8-chloro-4-((5-chlorothiophen-3-yl)amino)quinoline-3-carbonitrile] the figure was 1530 nM.
With `CC(C)(C)N1CCC(n2cc([C@@H](Nc3cc(Cl)c4ncc(C#N)c(Nc5cc(F)c(F)c(Cl)c5)c4c3)c3ccc(Cl)cc3)nn2)CC1` [Example 661, (S)-6-(((1-(1-(tert-butyl)piperidin-4-yl)-1H-1,2,3-triazol-4-yl)(4-chlorophenyl)methyl)amino)-8-chloro-4-((3-chloro-4,5-difluorophenyl)amino)quinoline-3-carbonitrile], the EC50 was found to be 1090 nM.
On to `N#CCn1cc([C@@H](Nc2cc(Cl)c3ncc(C#N)c(Nc4ccc(F)c(Cl)c4)c3c2)c2ccc(F)cc2)nn1` [Example 815, (S)-8-chloro-4-((3-chloro-4-fluorophenyl)amino)-6-(((1-(cyanomethyl)-1H-1,2,3-triazol-4-yl)(4-fluorophenyl)methyl)amino) quinoline-3-carbonitrile], for which the EC50 was determined as 311 nM.

The same assay, now with this note: second value of the cell IC50/EC50; human monocytes, 50 pg/ml LPS, 4 hours.
`CCN1CCC(n2cc(CNc3cc(Cl)c4ncc(C#N)c(Nc5ccc(F)c(Cl)c5)c4c3)nn2)CC1` [Comparative Example 1, reference compound]: the “IC50/EC50 [nM]: EC50 (TNFα, monocytes)” value worked out at 310 nM.
